# Laboratory results from patent publication US20240165264A1, “T CELL ACTIVATION” (The University of Birmingham, priority 2022, published 2024).
# How the values were obtained:
# Nr4a3-FT CD4+ T cells = test: Force induced TCR downregulation (TCRlo) by flow cytometry; type: cell-based, mouse; conditions: Latrunculin A 0.25 and 1 μM; cells with 250 nm particles and force
# Method: (§1) Splenic tissue was sourced from Nr4a3—fluorescent timer (Nr4a3-FT) reporter mice or from Tg4 transgenic mice, kindly provided by the laboratories of Dr David Bending (University of Birmingham) or Professor David Wraith (University of Birmingham) respectively. CD4+ T cells were purified by negative selection as per the manufacturer's instructions (Invitrogen, magnisort mouse CD4+ enrichment kit, 8804-6821-74) and CD4+ T cell purity was ≥95% in all experiments. Isolated CD4+ T cells were treated with functionalized MNPs for 30 minutes on ice, to final concentrations of 5×10^5 cells and 50 μg/ml MNPs respectively. Cells were then washed three times in PBS by 5 minutes of centrifugation at 300 g, before resuspension at 1×10^6/ml and use in force application experiments.
# (§2) Cells treated with MNPs were subjected to external magnetic force through use of the Magnetic Ion Channel Activation (MICA) platform for force application as previously described (Henstock et al., 2018; Hughes et al., 2008). […] In all experiments shown, oscillations were set at 1 Hz and the plate was positioned 3 mm away from the particles in the on position. Force was applied for time frames shown, before assessment of biological T cell activity as described herein.
# Where indicated, cells were treated with Latrunculin A (Tocris, C973) to final concentrations of 0.25 and 1 μM. […]
# [1] = tested on: CD4+ T cells from the Nr4a3-FT mouse; test: Flow cytometry analysis of T cell activation markers after magnetic force application to MNP-bound cells; type: cell-based; conditions: blockade of actin cytoskeletal dynamics
# Method: as §1, §2
# Following force application for time frames indicated, cells were maintained in a 37° C. […]
compound,measurement,setting,value
C/C1=C/C(=O)O[C@@H]2C[C@@H](CC[C@H](C)/C=C\C=C\CC1)O[C@@](O)([C@@H]1CSC(=O)N1)C2 [Latrunculin A],effect on force induced TCR downregulation,Nr4a3-FT CD4+ T cells,prevents force induced TCR downregulation
same,effect on population of cells that are TCRlo and Nr4a3 positive,Nr4a3-FT CD4+ T cells,prevents the establishment of a population of cells that are TCRlo and Nr4a3 positive
same,effect on force induced T cell activation,[1],prevents TCR downregulation and T cell activation
